Laboratory results as given in patent US4556674A, “2-Imino-pyrrolidines, process for their preparation, and therapeutic compositions containing same” (Laboratoires Jacques Logeais, priority 1983, dated 1985).

How the values were obtained:
human plasma clots = test: Fibrinolytic activity (lysis of human plasma clots); parameters: Concentration inducing lysis of the clot within 24 hours / Concentration inducing lysis of the clot within 48 hours: unit not given here; details: for Concentration inducing lysis of the clot within 24 hours / Concentration inducing lysis of the clot within 48 hours: human plasma clot, veronal buffer pH 7.2-7.4, 37° C.
Protocol: The following method was used.
Human plasma clots were prepared by recalcification (one drop of calcium thrombase at 20 U/ml per 0.5 ml of plasma), so that the clot formed around the hook of a glass rod. The clots were then suspended in buffered solutions (veronal buffer pH 7.2-7.4) maintained at 37° C. The eventual lysis of the clot is recorded after 24 hrs and 48 hrs incubation.

Acute Toxicity in Mice = type: in vivo; details: mouse, in vivo, death rate recorded 9 days after treatment
Protocol: (§1) The compounds were administered orally or intraperitoneally, in the form of a solution in physiological saline (0,9 % NaCl), to male mice of Swiss strain (body weight: 22-25 g). The death rate was recorded 9 days after the treatment. […]

[1] = tested on: collagen-induced blood-platelet aggregation (platelet rich plasma); test: Collagen-induced blood-platelet aggregation; type: cell-based, rabbit; details: for minimal effective concentration: Oryctolagus cuniculus, Platelet, read-out: Collagen-induced blood-platelet aggregation: Threshold concentrations (inhibition of aggregation <50%)
Protocol: Collagen-induced blood-platelet aggregation
Blood samples were taken from the carotid artery in rabbits, using an anticoagulant (sodium citrate at 3.8%, 1 volume per 9 volumes of blood). The platelet rich plasma (PRP) was obtained by slow centrifugation (1200 RPM for 10 mn), and the platelet poor plasma (PPP) by rapid centrifugation (4500 RPM for 15 mn). The PRP samples were placed in the cell of an aggregometer, incubated at 37° C., after which was added thereto Michaelis buffer containing the test compound (0.04 ml), followed by the aggregating agent (collagen: 0.08 ml of collagen suspension previously incubated at 33° C. for 90 seconds). Blood-platelet aggregation is evidenced by the decrease of the optical density of the PRP (Initial O.D. of the PRP: 100%. Initial O.D. of the PPP=0%.)

[2] = tested on: aconitine-induced dysrhythmia; test: Anti-dysrhythmic activity, aconitine test in rats; type: in vivo, rat
Protocol: The animals are anesthetized with urethane (1 g/kg i.p.); an aconitine sulfate injection (27.5 μg/kg) is made in the pre-catheterized jugular vein, 30 minutes after administration by the same route of one of the test compounds. The time delay before the appearance of the first burst of dysrhythmia is noted on the electrocardiogram (D2 lead recording) and compared with reference animals.

cardiac rhythm = details: described in DE-A-1770 752; cited from earlier work
[3] = tested on: male mice of Swiss strain; test: Acute Toxicity in Mice; type: in vivo; details: result in words
Protocol: as §1

α-adrenolytic activity = α-adrenolytic activity observed in dog after an injection of nor-adrenalin; type: in vivo; details: result in words
[4] = rabbit PRP, 37° C., collagen, threshold concentrations
[5] = Rattus norvegicus, iv, read-out: Aconitine-induced dysrhythmia, percent animals protected

Row | SMILES | Concentration inducing lysis of the clot within 48 hours (human plasma clots) | mortality at 216 h (Acute Toxicity in Mice; po, 200 mg/kg p.o.) [%] | minimal effective concentration [1, 4] [µg/mL] | mortality at 216 h (Acute Toxicity in Mice; ip, 100 mg/kg i.p.) [%] | further results
1 | CN1CC(COc2ccccc2C#N)CC1=NCCOc1ccccc1 (stereo not drawn) [Example 22, 1-Methyl-4-(2'-cyano-phenoxymethyl)-2-(2-phenoxyethylimino)-pyrrolidine] | 5-10 | 0 | 30 |  | Concentration inducing lysis of the clot within 24 hours (human plasma clots): 20; mortality at 216 h (Acute Toxicity in Mice; ip, 33 mg/kg i.p.): 40%
2 | CN1CC(COc2ccc3c(c2)OCO3)CC1=NCCOc1ccccc1 (stereo not drawn) [Example 19, 1-Methyl-4-(3',4'-methylenedioxy-phenoxymethyl)-2-(2-phenoxy-ethylimino)-pyrrolidine] |  | 0 | 3 to 10 | 80 | responders at 2.5 mg/kg [2, 5]: 25%
3 | CCc1ccccc1OCC1CC(=NCCc2ccc(OC)c(OC)c2)N(C)C1 (stereo not drawn) [Example 21, 1-Methyl-4-(2'-ethyl-phenoxymethyl)-2-(3',4'-dimethoxy-phenethylimino)pyrrolidine] | 10-20 | 0 | 3 |  | mortality at 216 h (Acute Toxicity in Mice; ip, 33 mg/kg i.p.): 20%; responders at 7.5 mg/kg [2, 5]: 100%
4 | CC(Cc1ccccc1)N=C1CC(c2ccccc2)CN1C (stereo not drawn) [Example 2, 1-Methyl-4-phenyl-2-phenylisopropylimino-pyrrolidine] |  | 83 | 10 | 100 | responders at 1 mg/kg [2, 5]: 67%
5 | CN1CC(COc2ccccc2)CC1=NCCOc1ccccc1 (stereo not drawn) [Example 17, 1-Methyl-4-phenoxymethyl-2-(2-phenoxy-ethylimino)-pyrrolidine] |  |  | 3 |  | responders at 10 mg/kg [2, 5]: 100%
6 | CN1CC(c2cc3ccccc3o2)CC1=NCCOc1ccccc1 (stereo not drawn) [Example 15, 1-Methyl-4-(2-benzofuryl)-2-(2-phenoxy-ethylimino)-pyrrolidine] |  | 10 |  | 100 | responders at 5 mg/kg [2, 5]: 80%
7 | COc1ccc(CCN=C2CCCN2C)cc1OC [Compound A, 1-methyl-2-[(3,4-dimethoxy-phenylethyl)imino]pyrrolidine, reference compound] |  | 0 |  |  | mortality at 216 h (Acute Toxicity in Mice; ip, 200 mg/kg i.p.): 60%; responders at 5 mg/kg [2, 5]: 0%; Collagen-induced blood-platelet aggregation: Threshold concentrations (inhibition of aggregation <50%) [1, 4]: inactive; action on the cardiac rhythm (cardiac rhythm): decreasing action on the cardiac rhythm
8 | COCCN=C1CC(c2cc3ccccc3o2)CN1C (stereo not drawn) [Example 12, 1-Methyl-4-(2-benzofuryl)-2-(2-methoxy-ethylimino)-pyrrolidine] |  | 0 | 3 to 30 | 100 | 
9 | CCCN1CC(c2ccccc2)CC1=NCCOc1ccccc1 (stereo not drawn) [Example 6, 1-n.Propyl-4-phenyl-2-(phenoxyethyl-imino)pyrrolidine] | 5-10 |  | 1 to 3 |  | 
10 | COc1ccc(CCN=C2CC(COc3ccccc3)CN2C)cc1OC (stereo not drawn) [Example 18, 1-Methyl-4-phenoxymethyl-2-(3',4'-dimethoxy-phenethylimino)pyrrolidine] | 20 | 0 | 10 to 30 | 40 | responders at 5 mg/kg [2, 5]: 100%
11 | CN1CC(c2cc3ccccc3o2)CC1=NCCO (stereo not drawn) [Example 11] |  | 0 | 10 to 100 |  | mortality at 216 h (Acute Toxicity in Mice; ip, 200 mg/kg i.p.): 80%
12 | COc1ccc(CCN=C2CC(c3ccccc3)CN2C)cc1OC (stereo not drawn) [Example 4, 1-Methyl-4-phenyl-2-(3',4'-dimethoxy-phenethylimino)pyrrolidine] |  | 0 | 10 to 30 |  | mortality at 216 h (Acute Toxicity in Mice; ip, 200 mg/kg i.p.): 100%; responders at 7.5 mg/kg [2, 5]: 90%
13 | CC(Cc1ccccc1)N=C1CC(c2cc3ccccc3o2)CN1C (stereo not drawn) [Example 14, 1-Methyl-4-(2-benzofuryl)-2-phenylisopropyl-imino-pyrrolidine] |  | 0 | 3 to 10 | 80 | responders at 5 mg/kg [2, 5]: 100%
14 | CN1CC(c2ccccc2)CC1=NCCOc1ccccc1 (stereo not drawn) [Example 3, 1-Methyl-4-phenyl-2-(2-phenoxy-ethylimino)pyrrolidine] |  | 0 | 1 to 3 |  | Concentration inducing lysis of the clot within 24 hours (human plasma clots): 10-20; fibrinolytic activity (human plasma clots; result in words): a fibrinolytic activity; toxicity [3]: least toxic in mice; mortality at 216 h (Acute Toxicity in Mice; ip, 200 mg/kg i.p.): 0%; responders at 10 mg/kg [2, 5]: 83%; anti-arrhythmic activity ([2]; result in words): an anti-arrhythmic activity; anti-blood-platelet-aggregation activity ([1]; result in words): possesses an anti-blood-platelet aggregating activity; α-adrenolytic activity (α-adrenolytic activity): an α-adrenolytic activity
15 | CN1CC(c2ccccc2)CC1=NCCc1ccccc1 (stereo not drawn) [Example 1, 1-Methyl-4-phenyl-2-phenylethylimino-pyrrolidine] |  | 0 |  | 80 | responders at 1 mg/kg [2, 5]: 25%
16 | COc1ccc(CCN=C2CC(COc3ccc4c(c3)OCO4)CN2C)cc1OC (stereo not drawn) [Example 20, 1-Methyl-4-(3',4'-methylenedioxy-phenoxymethyl)-4-(3',4'-dimethoxy-phenethylimino)pyrrolidine] |  | 0 | 10 to 30 | 80 | responders at 10 mg/kg [2, 5]: 100%
17 | COc1ccc(CCN=C2CC(c3cc4ccccc4o3)CN2C)cc1OC (stereo not drawn) [Example 16] |  | 0 | 10 to 30 | 100 | responders at 3 mg/kg [2, 5]: 80%
18 | C#CCN=C1CC(c2cc3ccccc3o2)CN1C (stereo not drawn) [Example 10, 1-Methyl-4-(2-benzofuryl)-2-propargylimino-pyrrolidine] |  |  | 100 |  | 
19 | CCN1CC(c2ccccc2)CC1=NCCc1ccc(OC)c(OC)c1 (stereo not drawn) [Example 5, 1-Ethyl-4-phenyl-2-(3',4'-dimethoxy-phenethylimino)pyrrolidine] |  | 0 | 3 to 10 | 20 | 
20 | C=CCN1CC(c2ccccc2)CC1=NCCc1ccc(OC)c(OC)c1 (stereo not drawn) [Example 7, 1-Allyl-4-phenyl-2-(3',4'-dimethoxy-phenethyl-imino)pyrrolidine] | 10-20 |  | 10 |  | 
21 | CCCN=C1CC(c2cc3ccccc3o2)CN1C (stereo not drawn) [Example 8, 1-Methyl-4-(2-benzofuryl)-2-n.propyl-imino-pyrrolidine] | 20 |  | 10 to 30 |  | 
22 | CN1CC(c2cc3ccccc3o2)CC1=NCCc1ccccc1 (stereo not drawn) [Example 13, 1-Methyl-4-(2-benzofuryl)-2-phenethylimino-pyrrolidine] | 2.5-5 | 0 | 3 to 30 | 100 | Concentration inducing lysis of the clot within 24 hours (human plasma clots): 10; responders at 5 mg/kg [2, 5]: 50%
23 | C=CCN=C1CC(c2cc3ccccc3o2)CN1C (stereo not drawn) [Example 9, 1-Methyl-4-(2-benzofuryl)-2-allylimino-pyrrolidine] |  |  | 3 to 10 | 60 | mortality at 216 h (Acute Toxicity in Mice; po, 100 mg/kg p.o.): 0%
